# From US20250034164A1, “NOVEL COMPOUND AND COMPOSITION FOR PREVENTING OR TREATING NEUROINFLAMMATORY BRAIN DISEASES COMPRISING SAME AS ACTIVE INGREDIENT” (KOREA INSTITUTE OF OCEAN SCIENCE & TECHNOLOGY, priority 2021, published 2025)
# pIC50: −log10 of the molar value.
# Test system: nitric oxide (NO) produced in mouse BV-2 microglia cells stimulated with LPS
# Assay: NO production inhibition in LPS-stimulated BV-2 microglia cells (Griess reagent)
# Assay type: cell-based
# Settings: BV-2 cells, LPS 200 ng/ml, treated at 2.5 to 20 PM (FIG. 37A)
# Procedure: BV-2 microglia cells were cultured in a humidified 5% CO2 incubator at 37° C. using a Dulbecco's modified Eagle medium supplemented with 5% fetal bovine serum and 1% penicillin/streptomycin at 100 units/mL.
# In all experiments, the number of cells was 2.5×10^5 cell/ml, the cells were first treated with each of Compounds of Examples 1 to 25 by concentration (2.5 to 200 μg/ml), and LPS was diluted in medium and used at a concentration of 200 ng/ml. A cytotoxicity test was performed using MTT assay, and the MTT assay was performed by performing NO assay and injecting 30 μl of MTT at a concentration of 0.5 mg/ml into the cells in a microplate. After reacting for 2 hours in the incubator, formazan crystals were dissolved in 100 μl of DMSO, and the absorbance was measured using a Vmax microplate reader (Tencan Co., Switzerland) with a wavelength of 540 nm. In order to quantitatively measure the production of nitric oxide (NO), mouse BV-2 microglia cells were prepared in a microplate (96 well), and added with LPS (200 ng/ml) and Compounds by concentration (2.5 to 200 μg/ml). The cells reacted in an incubator for 24 h, and 50 μl of the supernatant reacted with a Griess reagent (a mixed solution of 1% sulfanilamide, 0.1% N-(1-naphthyl)-ethylenediamine dihydrochloride, and 2.5% H3PO4), and then the absorbance was measured using a Vmax 96-well microplate spectrophotometer with a wavelength of 550 nm.
# In order to analyze the anti-inflammatory efficacy of Compound of Example 1, the concentration inhibitory effect of nitric oxide (NO) produced in mouse BV-2 microglia cells stimulated with LPS (200 ng/ml), a neuroinflammatory factor, was confirmed.
# The neuroinflammation inhibitory effects of Compounds of Examples 2 to 25 were confirmed.
# In order to analyze the anti-inflammatory efficacy of Compound 26 of Chemical Formula 2, the concentration inhibitory effect of nitric oxide (NO) produced in mouse BV-2 microglia cells stimulated with LPS (200 ng/ml), a neuroinflammatory factor, was confirmed. Compound 26 of Chemical Formula 2 was purchased from Santa Cruz biotechnology (CAS 79127-35-8) and the experiment was performed. As a result of treating Compound of Chemical Formula 2 at […], it was confirmed that the amount of nitric oxide (NO) was reduced, as shown in FIG. 37A.
row,SMILES,amount of nitric oxide (NO)
1,"NC(=O)C1=C[C@H]2[C@@H]3C=CC2(O)C(=O)O[C@@H]3O1 (stereo in doubt) [Compound 26, (1S,4aS,5R,7aS)-5-hydroxy-8-oxo-1,4a,5,7a-tetrahydro-1,5-(epoxymethano)cyclopenta[c]pyran-3-carboxamide]",reduced

# Same assay, conditions: mouse BV-2 microglia cells, LPS 200 ng/ml, 24 h; read-out: NO inhibitory activity (IC50 value)
row,pIC50,SMILES
1,< 4.70,"O=C(O)C1=C[C@H]2[C@@H]3C=C[C@H]2C(=O)O[C@@H]3O1 [Compound 5, (1S,4aS,5R,7aS)-8-oxo-1,4a,5,7a-tetrahydro-1,5-(epoxymethano)cyclopenta[c]pyran-3-carboxylic acid]"
2,< 4.70,"O=C1O[C@@H]2OC(CBr)=C[C@H]3[C@@H]2C=C[C@@H]13 [Compound 23, (1S,4aS,5R,7aS)-3-(bromomethyl)-1,4a,5,7a-tetrahydro-1,5-(epoxymethano)cyclopenta[c]pyran-8-one]"
3,< 4.70,"O=C(OCC1=C[C@H]2[C@@H]3C=C[C@H]2C(=O)O[C@@H]3O1)c1ccc([N+](=O)[O-])cc1 [Compound 21, ((1S,4aS,5R,7aS)-8-oxo-1,4a,5,7a-tetrahydro-1,5-(epoxymethano)cyclopenta[c]pyran-3-yl)methyl 4-nitrobenzoate]"
4,< 4.70,"O=C(OCC1=C[C@H]2[C@@H]3C=C[C@H]2C(=O)O[C@@H]3O1)c1cc2ccccc2o1 [Compound 17, ((1S,4aS,5R,7aS)-8-oxo-1,4a,5,7a-tetrahydro-1,5-(epoxymethano)cyclopenta[c]pyran-3-yl)methyl benzofuran-2-carboxylate]"
5,5.85,"C#CC(=O)OCC1=C[C@H]2[C@@H]3C=C[C@H]2C(=O)O[C@@H]3O1 [Compound 14, ((1S,4aS,5R,7aS)-8-oxo-1,4a,5,7a-tetrahydro-1,5-(epoxymethano)cyclopenta[c]pyran-3-yl)methyl propiolate]"
6,< 4.70,"O=C(OCC1=C[C@H]2[C@@H]3C=C[C@H]2C(=O)O[C@@H]3O1)c1ccc(-c2ccccc2)cc1 [Compound 12, ((1S,4aS,5R,7aS)-8-oxo-1,4a,5,7a-tetrahydro-1,5-(epoxymethano)cyclopenta[c]pyran-3-yl)methyl [1,1′-biphenyl]-4-carboxylate]"
7,< 4.70,"COCC1=C[C@H]2[C@@H]3C=C[C@H]2C(=O)O[C@@H]3O1 [Compound 3, (1S,4aS,5R,7aS)-3-(methoxymethyl)-1,4a,5,7a-tetrahydro-1,5-(epoxymethano)cyclopenta[c]pyran-8-one]"
8,< 4.70,"O=C(OCC1=C[C@H]2[C@@H]3C=C[C@H]2C(=O)O[C@@H]3O1)c1ccc(F)cc1 [Compound 18, ((1S,4aS,5R,7aS)-8-oxo-1,4a,5,7a-tetrahydro-1,5-(epoxymethano)cyclopenta[c]pyran-3-yl)methyl 4-fluorobenzoate]"
9,4.84,"O=C(OCC1=C[C@H]2[C@@H]3C=C[C@H]2C(=O)O[C@@H]3O1)c1ccc(Cl)cc1 [Compound 19, ((1S,4aS,5R,7aS)-8-oxo-1,4a,5,7a-tetrahydro-1,5-(epoxymethano)cyclopenta[c]pyran-3-yl)methyl 4-chlorobenzoate]"
10,< 4.70,"CC(=O)OCC1=C[C@H]2[C@@H]3C=C[C@H]2C(=O)O[C@@H]3O1 [Compound 2, ((1S,4aS,5R,7aS)-8-oxo-1,4a,5,7a-tetrahydro-1,5-(epoxymethano)cyclopenta[c]pyran-3-yl)methyl acetate]"
11,< 4.70,"O=C1O[C@@H]2OC(CI)=C[C@H]3[C@@H]2C=C[C@@H]13 [Compound 22, (1S,4aS,5R,7aS)-3-(iodomethyl)-1,4a,5,7a-tetrahydro-1,5-(epoxymethano)cyclopenta[c]pyran-8-one]"
12,< 4.70,"O=C(OCC1=C[C@H]2[C@@H]3C=C[C@H]2C(=O)O[C@@H]3O1)c1ccc(I)cc1 [Compound 20, ((1S,4aS,5R,7aS)-8-oxo-1,4a,5,7a-tetrahydro-1,5-(epoxymethano)cyclopenta[c]pyran-3-yl)methyl 4-iodobenzoate]"
13,< 4.70,"O=C(OCC1=C[C@H]2[C@@H]3C=C[C@H]2C(=O)O[C@@H]3O1)c1ccc2ccccc2c1 [Compound 13, ((1S,4aS,5R,7aS)-8-oxo-1,4a,5,7a-tetrahydro-1,5-(epoxymethano)cyclopenta[c]pyran-3-yl)methyl 2-naphthoate]"
14,< 4.70,"C=CCCCCCCCCC(=O)OCC1=C[C@H]2[C@@H]3C=C[C@H]2C(=O)O[C@@H]3O1 [Compound 8, ((1S,4aS,5R,7aS)-8-oxo-1,4a,5,7a-tetrahydro-1,5-(epoxymethano)cyclopenta[c]pyran-3-yl)methylundec-10-enoate]"
15,4.91,"C#CC/N=C/C1=C[C@H]2[C@@H]3C=C[C@H]2C(=O)O[C@@H]3O1 [Compound 15, (1S,4aS,5R,7aS)-3-((E)-(prop-2-yn-1-ylimino)methyl)-1,4a,5,7a-tetrahydro-1,5-(epoxymethano)cyclopenta[c]pyran-8-one]"
16,> 4.70,"O=C1O[C@@H]2OC(CO)=C(Br)[C@H]3[C@@H]2C=C[C@@H]13 [Compound 24, (1S,4aS,5R,7aS)-4-bromo-3-(hydroxymethyl)-1,4a,5,7a-tetrahydro-1,5-(epoxymethano)cyclopenta[c]pyran-8-one]"
17,< 4.70,"O=C(OCC1=C[C@H]2[C@@H]3C=C[C@H]2C(=O)O[C@@H]3O1)c1ccccc1 [Compound 7, ((1S,4aS,5R,7aS)-8-oxo-1,4a,5,7a-tetrahydro-1,5-(epoxymethano)cyclopenta[c]pyran-3-yl)methyl benzoate]"
18,< 4.70,"CCC(C)C(=O)OCC1=C[C@H]2[C@@H]3C=C[C@H]2C(=O)O[C@@H]3O1 (stereo partly drawn) [Compound 9, ((1S,4aS,5R,7aS)-8-oxo-1,4a,5,7a-tetrahydro-1,5-(epoxymethano)cyclopenta[c]pyran-3-yl)methyl 2-methyl butanoate]"
19,< 4.70,"O=C1O[C@@H]2OC(CCl)=C[C@H]3[C@@H]2C=C[C@@H]13 [Compound 25, (1S,4aS,5R,7aS)-3-(chloromethyl)-1,4a,5,7a-tetrahydro-1,5-(epoxymethano)cyclopenta[c]pyran-8-one]"
20,5.42,"O=C(OCC1=C[C@H]2[C@@H]3C=C[C@H]2C(=O)O[C@@H]3O1)c1cccc2c1-c1ccccc1C2=O [Compound 16, ((1S,4aS,5R,7aS)-8-oxo-1,4a,5,7a-tetrahydro-1,5-(epoxymethano)cyclopenta[c]pyran-3-yl)methyl 9-oxo-9H-fluorene-4-carboxylate]"
21,< 4.70,"COc1ccc(C(=O)OCC2=C[C@H]3[C@@H]4C=C[C@H]3C(=O)O[C@@H]4O2)cc1 [Compound 11, ((1S,4aS,5R,7aS)-8-oxo-1,4a,5,7a-tetrahydro-1,5-(epoxymethano)cyclopenta[c]pyran-3-yl)methyl 4-methoxybenzoate]"
22,< 4.70,"Cc1ccc(C(=O)OCC2=C[C@H]3[C@@H]4C=C[C@H]3C(=O)O[C@@H]4O2)cc1 [Compound 10, ((1S,4aS,5R,7aS)-8-oxo-1,4a,5,7a-tetrahydro-1,5-(epoxymethano)cyclopenta[c]pyran-3-yl)methyl 4-methyl benzoate]"
